Assay results reported in ChEMBL document CHEMBL5584214, “Design of MERS-CoV entry inhibitory short peptides based on helix-stabilizing strategies” (Bioorg Med Chem Lett, 2024).
Non-standard residues stand in square brackets, D forms with d. Residues, ends and D or L forms follow the SMILES beside them. *: point of attachment. PEG12 = NCCOCCOCCOCCOCCOCCOCCOCCOCCOCCOCCOCCOCCC(=O)O; Palmitoyl = CCCCCCCCCCCCCCCC(=O)*; Octanoyl = CCCCCCCC(=O)*; AEEA = NCCOCCOCC(=O)O; Aib = CC(C)(N)C(=O)O

Assay: Inhibition of MERS-CoV Spike glycoprotein mediated cell-cell fusion
Parameters: species or system Middle East respiratory syndrome-related coronavirus

| Compound | EC50 |
| --- | --- |
| CSCC[C@H](NC(=O)[C@H](CCC(=O)O)NC(=O)[C@H](Cc1ccc(O)cc1)NC(=O)[C@@H](NC(=O)[C@H](CC(C)C)NC(=O)[C@H](CC(=O)O)NC(=O)[C@H](CC(C)C)NC(C)=O)[C@@H](C)O)C(=O)N[C@@H](CC(C)C)C(=O)N[C@@H](CO)C(=O)N[C@@H](CC(C)C)C(=O)N[C@@H](CCC(N)=O)C(=O)N[C@@H](CCC(N)=O)C(=O)N[C@H](C(=O)N[C@H](C(=O)N[C@@H](CCCCN)C(=O)N[C@@H](C)C(=O)N[C@@H](CC(C)C)C(=O)N[C@@H](CC(N)=O)C(=O)N[C@@H](CCC(=O)O)C(=O)N[C@@H](CO)C(=O)N[C@@H](Cc1ccc(O)cc1)C(N)=O)C(C)C)C(C)C | > 50 µM |
| CSCC[C@H](NC(=O)C(C)(C)NC(=O)[C@H](Cc1ccc(O)cc1)NC(=O)[C@H](CCC(=O)O)NC(=O)[C@H](CC(C)C)NC(=O)C(C)(C)NC(=O)[C@H](CC(C)C)NC(C)=O)C(=O)N[C@@H](CCCCN)C(=O)N[C@@H](CO)C(=O)N[C@@H](CC(C)C)C(=O)N[C@@H](CCC(N)=O)C(=O)N[C@@H](CCC(N)=O)C(=O)N[C@H](C(=O)N[C@H](C(=O)N[C@@H](CCCCN)C(=O)N[C@@H](C)C(=O)N[C@@H](CC(C)C)C(=O)N[C@@H](CC(N)=O)C(=O)N[C@@H](CCC(=O)O)C(=O)N[C@@H](CO)C(=O)N[C@@H](Cc1ccc(O)cc1)C(N)=O)C(C)C)C(C)C | 14.8 µM |
| CSCC[C@H](NC(=O)[C@H](CCC(=O)O)NC(=O)[C@H](Cc1ccc(O)cc1)NC(=O)[C@@H](NC(=O)[C@H](CC(C)C)NC(=O)[C@H](CC(=O)O)NC(=O)[C@H](CC(C)C)NC(C)=O)[C@@H](C)O)C(=O)N[C@@H](CC(C)C)C(=O)N[C@@H](CO)C(=O)N[C@@H](CC(C)C)C(=O)N[C@@H](CCC(N)=O)C(=O)N[C@@H](CCC(N)=O)C(=O)N[C@H](C(=O)N[C@H](C(=O)NC(C)(C)C(=O)N[C@@H](C)C(=O)N[C@@H](CC(C)C)C(=O)N[C@@H](CC(N)=O)C(=O)NC(C)(C)C(=O)N[C@@H](CO)C(=O)N[C@@H](Cc1ccc(O)cc1)C(N)=O)C(C)C)C(C)C | 3.04 µM |
| CSCC[C@H](NC(=O)[C@H](CCC(=O)O)NC(=O)C(C)(C)NC(=O)[C@@H](NC(=O)[C@H](CC(C)C)NC(=O)[C@H](CC(=O)O)NC(=O)C(C)(C)NC(C)=O)[C@@H](C)O)C(=O)N[C@@H](CC(C)C)C(=O)N[C@@H](CO)C(=O)N[C@@H](CC(C)C)C(=O)N[C@@H](CCC(N)=O)C(=O)N[C@@H](CCC(N)=O)C(=O)N[C@H](C(=O)N[C@H](C(=O)N[C@@H](CCCCN)C(=O)N[C@@H](C)C(=O)N[C@@H](CC(C)C)C(=O)N[C@@H](CC(N)=O)C(=O)N[C@@H](CCC(=O)O)C(=O)N[C@@H](CO)C(=O)N[C@@H](Cc1ccc(O)cc1)C(N)=O)C(C)C)C(C)C | > 50 µM |
| CSCC[C@H](NC(=O)C(C)(C)NC(=O)[C@H](Cc1ccc(O)cc1)NC(=O)[C@@H](NC(=O)[C@H](CC(C)C)NC(=O)C(C)(C)NC(=O)[C@H](CC(C)C)NC(C)=O)[C@@H](C)O)C(=O)N[C@@H](CC(C)C)C(=O)N[C@@H](CO)C(=O)N[C@@H](CC(C)C)C(=O)N[C@@H](CCC(N)=O)C(=O)N[C@@H](CCC(N)=O)C(=O)N[C@H](C(=O)N[C@H](C(=O)N[C@@H](CCCCN)C(=O)N[C@@H](C)C(=O)N[C@@H](CC(C)C)C(=O)N[C@@H](CC(N)=O)C(=O)N[C@@H](CCC(=O)O)C(=O)N[C@@H](CO)C(=O)N[C@@H](Cc1ccc(O)cc1)C(N)=O)C(C)C)C(C)C | 2.33 µM |
| CSCC[C@H](NC(=O)[C@H](CCC(=O)O)NC(=O)C(C)(C)NC(=O)[C@@H](NC(=O)[C@H](CC(C)C)NC(=O)[C@H](CC(=O)O)NC(=O)[C@H](CC(C)C)NC(C)=O)[C@@H](C)O)C(=O)N[C@@H](CC(C)C)C(=O)NC(C)(C)C(=O)N[C@@H](CC(C)C)C(=O)N[C@@H](CCC(N)=O)C(=O)N[C@@H](CCC(N)=O)C(=O)N[C@H](C(=O)N[C@H](C(=O)N[C@@H](CCCCN)C(=O)N[C@@H](C)C(=O)N[C@@H](CC(C)C)C(=O)N[C@@H](CC(N)=O)C(=O)N[C@@H](CCC(=O)O)C(=O)N[C@@H](CO)C(=O)N[C@@H](Cc1ccc(O)cc1)C(N)=O)C(C)C)C(C)C | > 50 µM |
| CSCC[C@H](NC(=O)[C@H](CCC(=O)O)NC(=O)[C@H](Cc1ccc(O)cc1)NC(=O)[C@@H](NC(=O)[C@H](CC(C)C)NC(=O)[C@H](CC(=O)O)NC(=O)[C@H](CC(C)C)NC(C)=O)[C@@H](C)O)C(=O)N[C@@H](CC(C)C)C(=O)N[C@@H](CO)C(=O)N[C@@H](CC(C)C)C(=O)N[C@@H](CCC(N)=O)C(=O)N[C@@H](CCC(N)=O)C(=O)N[C@H](C(=O)N[C@H](C(=O)N[C@@H](CCCCN)C(=O)N[C@@H](C)C(=O)N[C@@H](CC(C)C)C(=O)N[C@@H](CC(N)=O)C(=O)N[C@@H](CCC(=O)O)C(=O)N[C@@H](C)C(=O)N[C@@H](Cc1ccc(O)cc1)C(N)=O)C(C)C)C(C)C | 6.67 µM |
| CSCC[C@H](NC(=O)[C@H](CCC(=O)O)NC(=O)[C@H](Cc1ccc(O)cc1)NC(=O)C(C)(C)NC(=O)[C@H](CC(C)C)NC(=O)[C@H](CC(=O)O)NC(=O)[C@H](CC(C)C)NC(C)=O)C(=O)NC(C)(C)C(=O)N[C@@H](CO)C(=O)N[C@@H](CC(C)C)C(=O)N[C@@H](CCC(N)=O)C(=O)N[C@@H](CCC(N)=O)C(=O)N[C@H](C(=O)N[C@H](C(=O)N[C@@H](CCCCN)C(=O)N[C@@H](C)C(=O)N[C@@H](CC(C)C)C(=O)N[C@@H](CC(N)=O)C(=O)N[C@@H](CCC(=O)O)C(=O)N[C@@H](CO)C(=O)N[C@@H](Cc1ccc(O)cc1)C(N)=O)C(C)C)C(C)C | 24.4 µM |
| CSCC[C@H](NC(=O)[C@H](CCC(=O)O)NC(=O)[C@H](Cc1ccc(O)cc1)NC(=O)[C@@H](NC(=O)[C@H](CC(C)C)NC(=O)[C@H](CC(=O)O)NC(=O)[C@H](CC(C)C)NC(C)=O)[C@@H](C)O)C(=O)N[C@@H](CC(C)C)C(=O)N[C@@H](CO)C(=O)N[C@@H](CC(C)C)C(=O)N[C@@H](CCC(N)=O)C(=O)NC(C)(C)C(=O)N[C@H](C(=O)N[C@H](C(=O)N[C@@H](CCCCN)C(=O)NC(C)(C)C(=O)N[C@@H](CC(C)C)C(=O)N[C@@H](CC(N)=O)C(=O)N[C@@H](CCC(=O)O)C(=O)N[C@@H](CO)C(=O)N[C@@H](Cc1ccc(O)cc1)C(N)=O)C(C)C)C(C)C (Ac-LDLTYEMLSLQ[Aib]VVK[Aib]LNESY-NH2) | 6.66 µM |
| CSCC[C@H](NC(=O)[C@H](CCC(=O)O)NC(=O)[C@H](Cc1ccc(O)cc1)NC(=O)[C@@H](NC(=O)[C@H](CC(C)C)NC(=O)[C@H](CC(=O)O)NC(=O)[C@H](CC(C)C)NC(C)=O)[C@@H](C)O)C(=O)N[C@@H](CC(C)C)C(=O)N[C@@H](CO)C(=O)N[C@@H](CC(C)C)C(=O)NC(C)(C)C(=O)N[C@@H](CCC(N)=O)C(=O)N[C@H](C(=O)N[C@H](C(=O)NC(C)(C)C(=O)N[C@@H](C)C(=O)N[C@@H](CC(C)C)C(=O)N[C@@H](CC(N)=O)C(=O)N[C@@H](CCC(=O)O)C(=O)N[C@@H](CO)C(=O)N[C@@H](Cc1ccc(O)cc1)C(N)=O)C(C)C)C(C)C (Ac-LDLTYEMLSL[Aib]QVV[Aib]ALNESY-NH2) | 2.55 µM |
| CSCC[C@H](NC(=O)[C@H](CCC(=O)O)NC(=O)[C@H](Cc1ccc(O)cc1)NC(=O)[C@@H](NC(=O)[C@H](CC(C)C)NC(=O)[C@H](CC(=O)O)NC(=O)[C@H](CC(C)C)NC(C)=O)[C@@H](C)O)C(=O)N[C@@H](CC(C)C)C(=O)NC(C)(C)C(=O)N[C@@H](CC(C)C)C(=O)N[C@@H](CCC(N)=O)C(=O)N[C@@H](CCC(N)=O)C(=O)NC(C)(C)C(=O)N[C@H](C(=O)N[C@@H](CCCCN)C(=O)N[C@@H](C)C(=O)N[C@@H](CC(C)C)C(=O)N[C@@H](CC(N)=O)C(=O)N[C@@H](CCC(=O)O)C(=O)N[C@@H](CO)C(=O)N[C@@H](Cc1ccc(O)cc1)C(N)=O)C(C)C (Ac-LDLTYEML[Aib]LQQ[Aib]VKALNESY-NH2) | > 50 µM |
| CSCC[C@H](NC(=O)C(C)(C)NC(=O)[C@H](Cc1ccc(O)cc1)NC(=O)[C@H](CCC(=O)O)NC(=O)[C@H](CC(C)C)NC(=O)C(C)(C)NC(=O)[C@H](CC(C)C)NC(C)=O)C(=O)N[C@@H](CCCCN)C(=O)N[C@@H](CO)C(=O)N[C@@H](CC(C)C)C(=O)N[C@@H](CCC(N)=O)C(=O)N[C@@H](CCC(=O)O)C(=O)N[C@H](C(=O)N[C@H](C(=O)N[C@@H](CCCCN)C(=O)N[C@@H](CCCCN)C(=O)N[C@@H](CC(C)C)C(=O)N[C@@H](CC(N)=O)C(=O)N[C@@H](CCC(=O)O)C(=O)N[C@@H](CO)C(=O)N[C@@H](Cc1ccc(O)cc1)C(N)=O)C(C)C)C(C)C (Ac-L[Aib]LEY[Aib]MKSLQEVVKKLNESY-NH2) | 24 µM |
| CSCC[C@H](NC(=O)C(C)(C)NC(=O)[C@H](Cc1ccc(O)cc1)NC(=O)[C@@H](NC(=O)[C@H](CC(C)C)NC(=O)C(C)(C)NC(=O)[C@H](CC(C)C)NC(C)=O)[C@@H](C)O)C(=O)N[C@@H](CC(C)C)C(=O)N[C@@H](CO)C(=O)N[C@@H](CC(C)C)C(=O)N[C@@H](CCC(N)=O)C(=O)N[C@@H](CCC(=O)O)C(=O)N[C@H](C(=O)N[C@H](C(=O)N[C@@H](CCCCN)C(=O)N[C@@H](CCCCN)C(=O)N[C@@H](CC(C)C)C(=O)N[C@@H](CC(N)=O)C(=O)N[C@@H](CCC(=O)O)C(=O)N[C@@H](CO)C(=O)N[C@@H](Cc1ccc(O)cc1)C(N)=O)C(C)C)C(C)C (Ac-L[Aib]LTY[Aib]MLSLQEVVKKLNESY-NH2) | 3.62 µM |
| CCCCCCCC(=O)NCCCC[C@H](NC(=O)COCCOCCNC(=O)[C@H](Cc1ccc(O)cc1)NC(=O)[C@H](CO)NC(=O)[C@H](CCC(=O)O)NC(=O)[C@H](CC(N)=O)NC(=O)[C@H](CC(C)C)NC(=O)[C@H](CCCCN)NC(=O)[C@H](CCCCN)NC(=O)[C@@H](NC(=O)[C@@H](NC(=O)[C@H](CCC(=O)O)NC(=O)[C@H](CCC(N)=O)NC(=O)[C@H](CC(C)C)NC(=O)[C@H](CO)NC(=O)[C@H](CC(C)C)NC(=O)[C@H](CCSC)NC(=O)C(C)(C)NC(=O)[C@H](Cc1ccc(O)cc1)NC(=O)[C@@H](NC(=O)[C@H](CC(C)C)NC(=O)C(C)(C)NC(=O)[C@H](CC(C)C)NC(C)=O)[C@@H](C)O)C(C)C)C(C)C)C(N)=O (Ac-L[Aib]LTY[Aib]MLSLQEVVKKLNESY[AEEA]K(Octanoyl)-NH2) | 0.864 µM |
| CCCCCCCCCCCCCCCC(=O)NCCCC[C@H](NC(=O)CCOCCOCCOCCOCCOCCOCCOCCOCCOCCOCCOCCOCCNC(=O)[C@H](Cc1ccc(O)cc1)NC(=O)[C@H](CO)NC(=O)[C@H](CCC(=O)O)NC(=O)[C@H](CC(N)=O)NC(=O)[C@H](CC(C)C)NC(=O)[C@H](CCCCN)NC(=O)[C@H](CCCCN)NC(=O)[C@@H](NC(=O)[C@@H](NC(=O)[C@H](CCC(=O)O)NC(=O)[C@H](CCC(N)=O)NC(=O)[C@H](CC(C)C)NC(=O)[C@H](CO)NC(=O)[C@H](CC(C)C)NC(=O)[C@H](CCSC)NC(=O)C(C)(C)NC(=O)[C@H](Cc1ccc(O)cc1)NC(=O)[C@@H](NC(=O)[C@H](CC(C)C)NC(=O)C(C)(C)NC(=O)[C@H](CC(C)C)NC(C)=O)[C@@H](C)O)C(C)C)C(C)C)C(N)=O (Ac-L[Aib]LTY[Aib]MLSLQEVVKKLNESY[PEG12]K(Palmitoyl)-NH2) | 1.42 µM |
